Measurements: patent US20190152946A1, “Novel Compounds” (GlaxoSmithKline Intellectual Property Development Limited, priority 2016, published 2019)

Legend:
Type in all cases: cell-based
TEC = molecular target: T1, TEC (Homo sapiens, UniProt P42680); assay: Expression proteomics in THP-1 cells, TEC level; settings: TEC protein log2 fold change, 24 h, 1.0 μM
T1 construct: endogenous in cells; host or cells: THP-1
T1 sequence (P42680 1-631): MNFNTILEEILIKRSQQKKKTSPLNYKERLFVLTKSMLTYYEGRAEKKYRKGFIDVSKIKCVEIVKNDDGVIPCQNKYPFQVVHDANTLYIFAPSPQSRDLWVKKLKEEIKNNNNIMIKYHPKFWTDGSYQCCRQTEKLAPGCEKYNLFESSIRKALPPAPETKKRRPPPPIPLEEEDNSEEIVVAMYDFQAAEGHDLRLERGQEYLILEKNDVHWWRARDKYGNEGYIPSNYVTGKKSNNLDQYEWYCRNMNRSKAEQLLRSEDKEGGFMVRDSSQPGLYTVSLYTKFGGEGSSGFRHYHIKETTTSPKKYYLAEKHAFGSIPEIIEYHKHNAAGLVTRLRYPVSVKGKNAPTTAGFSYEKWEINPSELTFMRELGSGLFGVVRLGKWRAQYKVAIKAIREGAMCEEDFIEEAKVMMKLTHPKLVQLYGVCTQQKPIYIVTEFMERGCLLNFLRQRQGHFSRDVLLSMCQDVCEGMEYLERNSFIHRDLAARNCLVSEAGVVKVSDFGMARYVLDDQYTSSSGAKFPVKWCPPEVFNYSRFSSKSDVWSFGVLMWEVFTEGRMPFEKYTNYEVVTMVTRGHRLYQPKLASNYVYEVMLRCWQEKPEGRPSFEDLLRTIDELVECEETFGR
Method: (§1) THP-1 cells were seeded at a concentration of 3×10^6 cells in T175 flasks with 60 mL growth medium (RPM11640+10% FBS). […] of a 10× compound solution prepared in growth medium (DMSO), IAP PROTAC) was added and the cells were treated for the indicated time points (6 or 24 h) at 37° C., 5% CO2. For harvesting the cells were collected into falcon tubes on ice, centrifuged and washed twice in cold PBS (Life technologies). After the last washing step the supernatant was removed and the pellets were snap-frozen in liquid N2 and stored at −80° C. and lysed in 2% SDS for 3 min at 95° C. in a thermomixer (Thermo Fisher Scientific), followed by digestion of DNA with Benzonase at 37° C. for 1.5 h. Lysate was cleared by centrifugation an protein concentration in supernatant was determined by BCA assay.
(§2) Leukemia 25, 89-100 (2011).
(§3) Samples were dried in vacuo and resuspended in 0.05% trifluoroacetic acid in water. […]
(§4) Reporter ion intensities were read from raw data and multiplied with ion accumulation times (the unit is milliseconds) so as to yield a measure proportional to the number of ions;
(§5) Nat Biotech 29, 255-265 (2011). this measure is referred to as ion area Savitski, M. M. et al. Delayed Fragmentation and Optimized Isolation Width Settings for Improvement of Protein Identification and Accuracy of Isobaric Mass Tag Quantification on Orbitrap-Type Mass Spectrometers. […]

AKT2 = molecular target: T2, AKT2 (Homo sapiens, UniProt P31751); assay: Expression proteomics in THP-1 cells, AKT2 level; settings: AKT2 protein log2 fold change, 24 h, 1.0 μM
T2 construct: endogenous in cells; host or cells: THP-1
Method: as §1, §2, §3, §4, §5

RPS6KA1 = molecular target: T3, RPS6KA1 (Homo sapiens, UniProt Q15418); assay: Expression proteomics in THP-1 cells, RPS6KA1 level; settings: RPS6KA1 protein log2 fold change, 24 h, 1.0 μM
T3 construct: endogenous in cells; host or cells: THP-1
Method: as §1, §2, §3, §4, §5

T2 sequence (P31751 whole entry): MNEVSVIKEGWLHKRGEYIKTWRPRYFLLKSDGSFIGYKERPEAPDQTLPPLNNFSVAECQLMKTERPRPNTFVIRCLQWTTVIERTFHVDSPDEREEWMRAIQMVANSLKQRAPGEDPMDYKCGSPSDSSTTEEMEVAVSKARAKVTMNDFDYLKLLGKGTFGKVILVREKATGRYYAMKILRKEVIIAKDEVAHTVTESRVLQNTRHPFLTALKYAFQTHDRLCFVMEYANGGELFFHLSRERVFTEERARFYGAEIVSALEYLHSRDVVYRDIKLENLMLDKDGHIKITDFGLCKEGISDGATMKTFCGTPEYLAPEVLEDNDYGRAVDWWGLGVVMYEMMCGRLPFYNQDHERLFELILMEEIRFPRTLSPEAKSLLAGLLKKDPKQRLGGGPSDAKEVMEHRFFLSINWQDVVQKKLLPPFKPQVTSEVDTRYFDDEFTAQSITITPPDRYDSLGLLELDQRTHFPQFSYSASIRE
T3 sequence (Q15418 whole entry): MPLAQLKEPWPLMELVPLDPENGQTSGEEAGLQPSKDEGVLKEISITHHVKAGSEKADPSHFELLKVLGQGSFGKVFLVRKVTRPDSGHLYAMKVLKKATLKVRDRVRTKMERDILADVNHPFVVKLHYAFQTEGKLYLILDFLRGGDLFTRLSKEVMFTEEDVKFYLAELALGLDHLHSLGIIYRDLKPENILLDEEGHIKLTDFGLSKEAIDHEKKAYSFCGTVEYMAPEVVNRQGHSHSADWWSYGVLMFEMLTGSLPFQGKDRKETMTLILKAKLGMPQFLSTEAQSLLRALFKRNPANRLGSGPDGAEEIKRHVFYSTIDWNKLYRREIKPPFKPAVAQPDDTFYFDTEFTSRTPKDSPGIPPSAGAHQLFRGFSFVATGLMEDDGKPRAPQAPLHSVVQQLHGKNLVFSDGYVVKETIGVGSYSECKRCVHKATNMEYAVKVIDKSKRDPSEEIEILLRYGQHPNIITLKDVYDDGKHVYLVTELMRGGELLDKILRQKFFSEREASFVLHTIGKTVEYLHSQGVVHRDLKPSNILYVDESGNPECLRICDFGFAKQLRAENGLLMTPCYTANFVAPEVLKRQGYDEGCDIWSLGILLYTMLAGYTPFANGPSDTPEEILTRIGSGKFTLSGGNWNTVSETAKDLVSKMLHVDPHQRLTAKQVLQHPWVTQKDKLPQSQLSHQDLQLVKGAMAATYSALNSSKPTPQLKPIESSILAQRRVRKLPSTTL

log2fc_IAP_24 h_1.0 μM_n1 (TEC; replicate n1): −1.79
log2fc_IAP_24 h_1.0 μM_n2 (TEC; replicate n2): −2.04
log2fc_IAP_24 h_1.0 μM_n1 (AKT2; replicate n1): −1.01
log2fc_IAP_24 h_1.0 μM_n2 (AKT2; replicate n2): −0.89.
log2fc_IAP_24 h_1.0 μM_n1 (RPS6KA1; replicate n1): −1.21
log2fc_IAP_24 h_1.0 μM_n2 (RPS6KA1; replicate n2): −1.24
Structure (SMILES): CNC(=O)c1ccccc1Nc1nc(Nc2ccc(N3CCN(CCOCCOCCOCCOc4ccc5c(c4)CN(C(=O)[C@@H](NC(=O)[C@H](C)NC)C(C)(C)C)[C@H](C(=O)N[C@@H]4CCCc6ccccc64)C5)CC3)cc2)ncc1Cl [IAP, (S)-7-(2-(2-(2-(2-(4-(4-((5-Chloro-4-((2-(methylcarbamoyl)phenyl)amino)pyrimidin-2-yl)amino)phenyl)piperazin-1-yl)ethoxy)ethoxy)ethoxy)ethoxy)-2-((S)-3,3-dimethyl-2-((S)-2-(methylamino)propanamido)butanoyl)-N-((R)-1,2,3,4-tetrahydronaphthalen-1-yl)-1,2,3,4-tetrahydroisoquinoline-3-carboxamide]
